From US11992011B2, “Compounds for controlling plant pathogens” (VIB VZW, priority 2017, dated 2024)

Columns and labels:
Meloidogyne graminicola [1] = assay: Meloidogyne graminicola infection in rice, first experiment (Example 3); assay type: in vivo; conditions: infected rice, 100 μM, median (IQR), n = 8; for Gall number: harvested twelve days after infection; for Galls per AR: per adventitious root
Protocol: (§1) Seeds were germinated on wet tissue paper at 30° C. in the dark for three days, followed by transfer to individual PVC tubes (for nematode infection) containing SAP (Reversat et al., 1999). SAP (sand-absorbent polymer) is a mixture of fine silica sand and ultra-absorbent acrylic copolymer (DCM AquaPerla, DSM, Grobbendonk, Belgium) in a ratio of 1 kg sand to 1.5 g of dry copolymer.
(§2) Before use, each tube was washed in soapy water and dried in an oven at 70° C. for two days. […] The first two days after transfer, the tubes were covered with a polyethylene film (Saran Film, Dow Chemicals, Midland, USA) to prevent excessive evaporation. Seedlings were watered three times per week with 8 ml of Hoagland solution (Hoagland, 1938).
(§3) M. graminicola was extracted from infected Echinocloa crus-galli roots grown in potting soil at 25° C. Roots were washed until most soil was removed, after which they were cut into short fragments (with special care taken to cut open any outwardly visible galls). The cut material was put in […] pore diameter sieves which were put into a tap water bath at room temperature for three days. The water was then poured over a […] mesh sieve. The sieve surface was washed with approximately 50 ml of non-demineralized water, which was collected into a beaker before it could seep through the sieve.
(§4) The number of nematodes in five 100 μl samples taken from the nematode suspension was counted under a stereo microscope and averaged to determine inoculum concentration. Each plant (grown per the protocol outlined in the previous section) was then inoculated by injecting the desired number of nematodes in the SAP surrounding the root system using a micro-pipette.
(§5) Infection experiments with M. graminicola were performed by inoculating host plants 14 days after transfer to SAP by introducing the desired amount of J2 juveniles next to the root system using a micro pipette. Rice plants (cv. Nipponbare or Kitaake) were inoculated with 250 J2 juveniles per plant; wheat plants (cv. Sahara) were inoculated with 600 J2 juveniles per plant. Plants were harvested 14 days after inoculation. At this point, the plants were phenotyped by measuring the shoot and root length with a ruler, counting the number of adventitious roots and in some experiments by measuring leaf area using the EasyLeafArea software (Easlon and Bloom, 2014) and by determining shoot dry mass after 72 hours of drying in an oven at 70° C. Root systems were then stained in acid fuchsine as described in (Byrd et al., 1983) and left to destain in glycerol with 1 ml/l fuming HCl added for approximately ten days. The number of galls and nematodes was then counted using a binocular microscope.
Rice plants were germinated for three days, transferred to SAP and grown for twelve days. After twelve days, 240 M. graminicola J2 nematodes on average were added to each plant. Plants were harvested twelve days after infection and roots were stained with acid fuchsine to visualize galls and nematodes.

Meloidogyne graminicola [2] = assay: Meloidogyne graminicola infection in rice, second experiment (Example 4); assay type: in vivo; conditions: infected rice, 100 μM; for median number of galls lower compared to untreated controls: 13 days after infection; for plants in which necrosis was present: absent in control plants; for Gall number: harvested 13 days after inoculation; for Gall number / Fraction of empty galls / Galls per adventitious root / Number of J2 / Number of J3 + J4 / Number of adults (with eggs) / Number of adults (without eggs) / Total nematodes: median (IQR); for Likelihood of necrosis: value ± spread
Protocol: as §1, §2, §3, §4
as §5, with “microscope. […]” for “microscope.”
The second experiment was methodologically similar to the first. This time, plants were grown for 15 days before inoculation with 210 nematodes on average and harvested 13 days after inoculation. […]

Meloidogyne graminicola [3] = assay: Meloidogyne graminicola infection in wheat cv. Sahara (Example 5); assay type: in vivo; conditions: infected wheat, foliar spray; for Number of galls per AR / Number of galls: n = 9; for Number of galls: per root system; for reduction in gall numbers: vs control
Protocol: For Examples 1, 5 and 10, seeds of the winter wheat cultivar Sahara (Aveve Agrarisch, Landen, Belgium) were used. Seeds were washed in a 10% ethanol solution to remove any residual traces of fungicide and then germinated on wet paper at room temperature for four days; seeds were transferred to SAP tubes and placed in a growth chamber (25° C., 16 hours per day of light). Plants were watered with 8 ml of half-strength Hoagland solution every two days for the first ten days and with 8 ml of full strength Hoagland solution every two days afterwards.
Unless otherwise mentioned, all chemicals for nematode experiments were applied as a foliar spray consisting of the target compound at a concentration of 300 μM together with 0.1% (v/v) Tween 20 surfactant (Calbiochem) in distilled water. Again unless otherwise mentioned, all treatments for the nematode experiments were carried out three times: one and eight days before pathogen inoculation and seven days after pathogen inoculation. In all cases, plants were sprayed until run-off with an atomizer.
as §5
In this experiment, the compounds PA, MDCA and 4-IBA were tested as foliar spray in the monocot staple crop wheat (Triticum aestivum, cv. Sahara) against the nematode Meloidogyne graminicola. The bacterial compound LPS (lipopolysaccharide), which is a potent inducer of the plant immune system and a known priming agent (Desaki et al., 2006), was also included as a positive control.

OsPAL4 = assay: qRT-PCR in rice roots, OsPAL4 (Example 19); assay type: in vivo, Oryza sativa; conditions: rice cv. Bomba root tissue; 100 μM; harvested 13 days after germination; N=3 pools
Protocol: (§6) After quality control, qPCR was carried out.

OsPAL6 = assay: qRT-PCR in rice roots, OsPAL6 (Example 19); assay type: in vivo, Oryza sativa; conditions: rice cv. Bomba root tissue; 100 μM; harvested 13 days after germination; N=3 pools
Protocol: as §6

| SMILES | Gall number (Meloidogyne graminicola [1]) | Empty galls (Meloidogyne graminicola [1]) | Fraction of small galls (Meloidogyne graminicola [1]) | Number of J2 (Meloidogyne graminicola [1]) | Number of J3 + J4 (Meloidogyne graminicola [1]) | Number of adults (with eggs) (Meloidogyne graminicola [1]) | Number of adults (without eggs) (Meloidogyne graminicola [1]) | Total nematodes (Meloidogyne graminicola [1]) | Galls per AR (Meloidogyne graminicola [1]) | median number of galls lower compared to untreated controls (Meloidogyne graminicola [2]) [%] | plants in which necrosis was present (Meloidogyne graminicola [2]) | Gall number (Meloidogyne graminicola [2]) | Fraction of empty galls (Meloidogyne graminicola [2]) | Galls per adventitious root (Meloidogyne graminicola [2]) | Number of J2 (Meloidogyne graminicola [2]) | Number of J3 + J4 (Meloidogyne graminicola [2]) | Number of adults (with eggs) (Meloidogyne graminicola [2]) | Number of adults (without eggs) (Meloidogyne graminicola [2]) | Total nematodes (Meloidogyne graminicola [2]) | Likelihood of necrosis (Meloidogyne graminicola [2]) | other results |
| --- | --- | --- | --- | --- | --- | --- | --- | --- | --- | --- | --- | --- | --- | --- | --- | --- | --- | --- | --- | --- | --- |
| O=C(O)c1ccc2c(c1)OCO2 [PA, Piperonylic acid] | 12.5 (IQR = 4.0) | 0.0 (IQR = 1.0) | 0.76 (IQR = 0.08) | 9.0 (IQR = 8.3) | 5.0 (IQR = 5.5) | 0.5 (IQR = 1.3) | 19.5 (IQR = 11.8) | 32.5 (IQR = 17.8) | 0.83 (IQR = 0.29) | 36 | roughly 75% | 7.0 (IQR = 1.8) | 0.13 (IQR = 0.17) | 0.62 (IQR = 0.13) | 0.0 (IQR = 1.0) | 8.0 (IQR = 2.5) | 0.0 (IQR = 0.0) | 5.0 (IQR = 1.8) | 13.5 (IQR = 2.5) | 0.70 ± 0.48 | Number of galls per AR (Meloidogyne graminicola [3]): 2.5 ± 1.1; Number of galls (Meloidogyne graminicola [3]): 25.6 ± 6.5; reduction in gall numbers (Meloidogyne graminicola [3]): −33%; Fold change vs. control, OsPAL4 expression (OsPAL4): 3.04; Fold change vs. control, OsPAL6 expression (OsPAL6): 1.26 |
| O=C(O)/C=C/c1ccc2c(c1)OCO2 [MDCA, 3,4-methylenedioxycinnamic acid] | 11.5 (IQR = 3.3) | 0.5 (IQR = 1.3) | 0.84 (IQR = 0.13) | 7.5 (IQR = 8.0) | 8.0 (IQR = 8.3) | 3.0 (IQR = 13.3) | 20.0 (IQR = 7.3) | 41.5 (IQR = 14.3) | 0.78 (IQR = 0.22) | 28 | roughly 75% | 8.0 (IQR = 1.0) | 0.11 (IQR = 0.03) | 0.80 (IQR = 0.17) | 0.0 (IQR = 0.0) | 7.0 (IQR = 5.0) | 0.0 (IQR = 1.0) | 10.0 (IQR = 2.0) | 17.0 (IQR = 5.0) | 0.78 ± 0.44 | Number of galls per AR (Meloidogyne graminicola [3]): 2.4 ± 0.8; Number of galls (Meloidogyne graminicola [3]): 24.6 ± 6.3; reduction in gall numbers (Meloidogyne graminicola [3]): −35%; Fold change vs. control, OsPAL4 expression (OsPAL4): 2.38; Fold change vs. control, OsPAL6 expression (OsPAL6): 1.40 |
